The source of these data is the NIST ThermoML archive (doi:10.1021/je0601255).

Numbers after ± are expanded uncertainties.

For series [1] the following is noted: 101 kPa, Liquid; for viscosity: Capillary tube (Ostwald / Ubbelohde) method; for mass density: Pycnometric method.
Series [2] in a line: xn = mol fraction of the nth substance listed. Conditions: 101 kPa, Liquid, x1 = 1; for viscosity: Capillary tube (Ostwald / Ubbelohde) method; for mass density: Pycnometric method.

One may read the viscosity as the resistance of a fluid to flow. For orientation: mass density means the mass of a sample divided by its volume. Consider `C=C(C)C(=O)O` [2-methyl-2-propenoic acid], for which the viscosity in series [1] (288.15 K) amounted to 1.447 ± 0.031 mPa·s; in series [1] (298.15 K), 1.267 ± 0.027 mPa·s; in series [1] (308.15 K), 1.078 ± 0.023 mPa·s; in series [1] (318.15 K) it was 0.945 ± 0.02 mPa·s. Besides, the mass density is 1018.3 ± 2.1 kg/m3 in series [1] (288.15 K), 1009.5 ± 2.1 kg/m3 in series [1] (298.15 K), 999.4 ± 2.1 kg/m3 in series [1] (308.15 K) and 989.2 ± 2.1 kg/m3 in series [1] (318.15 K).
Regarding `C=C(C)C(=O)OCc1ccccc1` [benzyl methacrylate], the viscosity turned out to be 2.871 ± 0.066 mPa·s in series [1] (288.15 K), 2.302 ± 0.053 mPa·s in series [1] (298.15 K), 1.885 ± 0.043 mPa·s in series [1] (308.15 K) and 1.58 ± 0.036 mPa·s in series [1] (318.15 K). Also, the mass density turned out to be 1041.2 ± 2.4 kg/m3 in series [1] (288.15 K), 1034.7 ± 2.3 kg/m3 in series [1] (298.15 K), 1025.8 ± 2.3 kg/m3 in series [1] (308.15 K) and 1017 ± 2.3 kg/m3 in series [1] (318.15 K).
Take `CCCCO` [butan-1-ol] + C=C(C)C(=O)OCCO: the viscosity was 3.286 ± 0.07 mPa·s in series [2] (288.15 K), 2.566 ± 0.055 mPa·s in series [2] (298.15 K), 1.998 ± 0.043 mPa·s in series [2] (308.15 K) and 1.55 ± 0.033 mPa·s in series [2] (318.15 K). The mass density in series [2] (288.15 K) was 812.3 ± 1.7 kg/m3; in series [2] (298.15 K), 805.6 ± 1.7 kg/m3; in series [2] (308.15 K), 798 ± 1.7 kg/m3; in series [2] (318.15 K), 790.5 ± 1.6 kg/m3.
Turning to `CCCCO` [butan-1-ol], the viscosity in series [1] (288.15 K) was 3.286 ± 0.07 mPa·s; in series [1] (298.15 K) it was 2.566 ± 0.055 mPa·s; in series [1] (308.15 K), 1.998 ± 0.043 mPa·s; in series [1] (318.15 K) it was 1.55 ± 0.033 mPa·s. In addition, the mass density in series [1] (288.15 K) was determined as 812.3 ± 1.7 kg/m3; in series [1] (298.15 K) it was 805.6 ± 1.7 kg/m3; in series [1] (308.15 K) it was 798 ± 1.7 kg/m3; in series [1] (318.15 K) it was 790.5 ± 1.6 kg/m3.
Take `CCCCO` [butan-1-ol] + C=C(C)C(=O)OCc1ccccc1: the viscosity in series [2] (288.15 K) was found to be 3.286 ± 0.07 mPa·s; in series [2] (298.15 K) it was 2.566 ± 0.055 mPa·s; in series [2] (308.15 K) it was 1.998 ± 0.043 mPa·s; in series [2] (318.15 K), 1.55 ± 0.033 mPa·s. Besides, the mass density in series [2] (288.15 K) is recorded as 812.3 ± 1.7 kg/m3; in series [2] (298.15 K) it was 805.6 ± 1.7 kg/m3; in series [2] (308.15 K) it was 798 ± 1.7 kg/m3; in series [2] (318.15 K), 790.5 ± 1.6 kg/m3.
`C=C(C)C(=O)OCCO` [2-hydroxyethyl 2-methyl-2-propenoate]: the viscosity was found to be 8.234 ± 0.19 mPa·s in series [1] (288.15 K), 5.784 ± 0.13 mPa·s in series [1] (298.15 K), 4.194 ± 0.096 mPa·s in series [1] (308.15 K) and 3.181 ± 0.073 mPa·s in series [1] (318.15 K). In addition, the mass density in series [1] (288.15 K) came out at 1074.7 ± 2.4 kg/m3; in series [1] (298.15 K), 1067.1 ± 2.4 kg/m3; in series [1] (308.15 K) it was 1057.7 ± 2.4 kg/m3; in series [1] (318.15 K) it was 1048.6 ± 2.4 kg/m3.
As to `CCCCO` [butan-1-ol] + C=C(C)C(=O)O, the viscosity in series [2] (288.15 K) amounted to 3.286 ± 0.07 mPa·s; in series [2] (298.15 K), 2.566 ± 0.055 mPa·s; in series [2] (308.15 K), 1.998 ± 0.043 mPa·s; in series [2] (318.15 K), 1.55 ± 0.033 mPa·s. Besides, the mass density in series [2] (288.15 K) is 812.3 ± 1.7 kg/m3; in series [2] (298.15 K), 805.6 ± 1.7 kg/m3; in series [2] (308.15 K) it was 798 ± 1.7 kg/m3; in series [2] (318.15 K), 790.5 ± 1.6 kg/m3.
